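The compound was tested at five concentrations on cells cultured in 96-well plates, with a 48-hour exposure period. GI50 = concentration required for 50% inhibition of growth.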 Calls of active or inactive are those of the source. Cut-off read from the data, not from the text of the source: active = GI50 up to about 1.1 µM and inactive = higher.
Experiments:
Test in all cases: NCI anticancer screen, dose series, 48 h
COLO 205 = tested on: COLO 205
EKVX = tested on: EKVX
MDA-MB-435 = tested on: MDA-MB-435
SK-MEL-5 = tested on: SK-MEL-5
ACHN = tested on: ACHN
SNB-75 = tested on: SNB-75
HCT-15 = tested on: HCT-15
SK-MEL-28 = tested on: SK-MEL-28
PC-3 = tested on: PC-3
SR = tested on: SR
K562 = tested on: K562
MOLT-4 = tested on: MOLT-4
RXF 393 = tested on: RXF 393
SK-MEL-2 = tested on: SK-MEL-2
SF-539 = tested on: SF-539
Hs-578T = tested on: Hs-578T
NCI-H460 = tested on: NCI-H460
MCF7 = tested on: MCF7
MDA-MB-231 = tested on: MDA-MB-231

| Compound | GI50 (COLO 205) | GI50 (EKVX) | GI50 (MDA-MB-435) | GI50 (SK-MEL-5) | GI50 (ACHN) | GI50 (SNB-75) | GI50 (HCT-15) [µM] | GI50 (SK-MEL-28) | GI50 (PC-3) | GI50 (SR) | GI50 (K562) | GI50 (MOLT-4) | GI50 (RXF 393) | GI50 (SK-MEL-2) | GI50 (SF-539) | GI50 (Hs-578T) | GI50 (NCI-H460) | GI50 (MCF7) | GI50 (MDA-MB-231) |
| --- | --- | --- | --- | --- | --- | --- | --- | --- | --- | --- | --- | --- | --- | --- | --- | --- | --- | --- | --- |
| COc1ccc(NC(=S)NN=C(C)c2cccc(C(C)=NNC(=S)Nc3ccc(OC)cc3)n2)cc1 | 4.45 µM (inactive) | > 100 µM (inactive) | 85.5 µM (inactive) | 0.995 µM (active) | 4.74 µM (inactive) | 3.9 µM (inactive) | 10.9 | > 100 µM (inactive) | 27.2 µM (inactive) | 3.13 µM (inactive) | 31.3 µM (inactive) | 8.55 µM (inactive) | > 100 µM (inactive) | > 100 µM (inactive) | 16.4 µM (inactive) | > 100 µM (inactive) | 12.4 µM (inactive) |  |  |
| CSc1n[n+]2c(s1)SCCC2 | 20.2 µM (inactive) |  |  | 46.5 µM (inactive) | > 100 µM (inactive) | 42.8 µM (inactive) |  | > 100 µM (inactive) |  | > 100 µM (inactive) | > 100 µM (inactive) | > 100 µM (inactive) | > 100 µM (inactive) |  | > 100 µM (inactive) |  | > 100 µM (inactive) |  |  |
| CCCCCCCCCCSC(=O)NC | 34.9 µM (inactive) | 27.2 µM (inactive) |  | 20.5 µM (inactive) | 40.4 µM (inactive) | 48.8 µM (inactive) | 22.6 | 26.3 µM (inactive) |  |  | 25.8 µM (inactive) | 18.5 µM (inactive) | 19.9 µM (inactive) | 22.5 µM (inactive) | 35.3 µM (inactive) |  | 33.3 µM (inactive) |  |  |
| CCCCCCCCCCCCCCCCOCC(CN(C)CCN(C)C)OCCCCCCCCCCCCCCCC (configuration not stated) | > 100 µM (inactive) | > 100 µM (inactive) |  | > 100 µM (inactive) | > 100 µM (inactive) | > 100 µM (inactive) | > 100 | > 100 µM (inactive) |  | > 100 µM (inactive) | > 100 µM (inactive) | > 100 µM (inactive) | > 100 µM (inactive) | > 100 µM (inactive) |  |  | > 100 µM (inactive) |  |  |
| CCCCCCCCCCCCCCCCCC(=O)O[C@H](COC(=O)CCCCCCCCCCC)COC(=O)CCCCCCCCCCCCCCC | > 100 µM (inactive) |  |  | > 100 µM (inactive) | > 100 µM (inactive) |  | > 100 | > 100 µM (inactive) |  | > 100 µM (inactive) | > 100 µM (inactive) | > 100 µM (inactive) |  |  |  |  | > 100 µM (inactive) |  |  |
| COc1ccc(NC(=O)CC(=O)N2N=C(N(c3ccccc3)c3ccccc3)CC2c2ccccc2)cc1 (configuration not stated) | > 100 µM (inactive) | > 100 µM (inactive) | > 100 µM (inactive) |  | > 100 µM (inactive) | > 100 µM (inactive) | > 100 | > 100 µM (inactive) | > 100 µM (inactive) |  | > 100 µM (inactive) | > 100 µM (inactive) | > 100 µM (inactive) | > 100 µM (inactive) | > 100 µM (inactive) | 98.4 µM (inactive) |  | > 100 µM (inactive) | > 100 µM (inactive) |
| NS(=O)(=O)c1ccc(Nc2c3ccccc3nc3c(C(=O)N4CCN(CCO)CC4)cccc23)cc1 | > 100 µM (inactive) | > 100 µM (inactive) |  | > 100 µM (inactive) | > 100 µM (inactive) | 52.7 µM (inactive) | > 100 | > 100 µM (inactive) |  | 74.1 µM (inactive) | 53.2 µM (inactive) | 40.2 µM (inactive) | > 100 µM (inactive) | > 100 µM (inactive) | > 100 µM (inactive) |  | > 100 µM (inactive) |  |  |
| COC(=O)C(C(=O)C(=O)Nc1ccc(OC)cc1[N+](=O)[O-])c1nc2cc(C)c(C)cc2nc1O (configuration not stated) | > 100 µM (inactive) | 74.6 µM (inactive) |  | > 100 µM (inactive) | > 100 µM (inactive) | > 100 µM (inactive) | > 100 | > 100 µM (inactive) |  | > 100 µM (inactive) | 31.6 µM (inactive) |  | > 100 µM (inactive) |  | > 100 µM (inactive) |  | > 100 µM (inactive) |  |  |
| Clc1ccc(-n2nnc(C3=NCCN3)c2-c2ccccc2)cc1 | > 100 µM (inactive) | > 100 µM (inactive) |  | 86.9 µM (inactive) | > 100 µM (inactive) | 47.3 µM (inactive) | > 100 | > 100 µM (inactive) |  | > 100 µM (inactive) | > 100 µM (inactive) | 78.5 µM (inactive) | > 100 µM (inactive) | > 100 µM (inactive) | > 100 µM (inactive) |  | > 100 µM (inactive) |  |  |
| CC(=O)COC(=O)CC(C)=O | > 100 µM (inactive) | > 100 µM (inactive) |  |  | > 100 µM (inactive) | > 100 µM (inactive) | > 100 | > 100 µM (inactive) |  | > 100 µM (inactive) | > 100 µM (inactive) | > 100 µM (inactive) | > 100 µM (inactive) | > 100 µM (inactive) | > 100 µM (inactive) |  | > 100 µM (inactive) |  |  |
